# Structures can show the parent of a compound that is named as a salt. Where two headings read alike, the source gives them in different places.
# What was measured:
# [1] = 11-membered ring
# [2] = tested on: SK-MEL-2 cells; experiment: Antiproliferation assay SK-MEL-2 (Assay 7); assay type: cell-based; details: Homo sapiens, read-out: Antiproli SK-MEL-2 IC50 median
# Procedure: (§1) Assessment of the Anti-Proliferative Effect of Compounds in Different Cell Lines
# (§2) The impact of compounds on the proliferation of different cell lines was assessed using the CellTiter-Glo® Luminescent Cell Viability reagent from Promega (G7573).
# (§3) In parallel, cells were plated in a reference (day 0) plate for time zero determination. Cells were incubated in a humidified incubator at 37° C. overnight.
# (§4) Rim wells were excluded. The cells were incubated for 72 h hours in a humidified incubator at 37° C. The day 0 plate was measured by adding 30 μL/well of CTG solution (CellTiter-Glo® Luminescent Cell Viability reagent, Promega G7573) to time zero wells in the reference plate followed by a 10 minutes incubation and luminescence reading at 0.1 ms. using the PHERAstar FS microplate reader (BMG Labtech).
# (§5) After 72 h incubation, the treated plates were measured in the same way as the day 0 plate mentioned above. The Bella DRC Master Sheet was used to calculate IC50s, with CI=day 0 values and C0=DMSO control values.
# [3] = tested on: A-431 cells; experiment: Antiproliferation assay A-431 (Assay 7); assay type: cell-based; details: Homo sapiens, read-out: Antiproli A-431 IC50 median
# Procedure: as §1, §2, §3, §4, §5
# [4] = tested on: DMS-114 cells; experiment: Antiproliferation assay DMS-114 (Assay 7); assay type: cell-based; details: Homo sapiens, read-out: Antiproli DM-S114 IC50 median
# Procedure: as §1, §2, §3, §4, §5
# [5] = tested on: SNU-389 cells; experiment: Antiproliferation assay SNU-389 (Assay 7); assay type: cell-based; details: 72 h, read-out: Antiproli SNU-389 IC50
# Procedure: as §1, §2, §3, §4, §5
# [6] = tested on: SNU-16 cells; experiment: Antiproliferation assay SNU-16 (Assay 7); assay type: cell-based; details: Homo sapiens, read-out: Antiproli SNU-16 IC50 median
# Procedure: as §1, §2, §3, §4, §5
# [7] = tested on: HMC-1-8 cells; experiment: Antiproliferation assay HMC-1-8 (Assay 7); assay type: cell-based
# How it was run: (§6)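 Anti-proliferative effect was measured by CellTiter-Glo ATP luminescence after 72 h compound exposure at 37° C, following overnight plating. IC50s were derived using a parallel time-zero plate and DMSO-treated controls as reference points.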
# [8] = tested on: SUDHL5 cells; experiment: Induction of cytotoxicity in SUDHL5 cells (Assay 6); assay type: cell-based; details: 5 h, CellTiter-Glo, read-out: Cytotox SUDHL5 IC50 (median)
# How it was run: (§7)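 SUDHL5 and SUDHL10 cells plated and held overnight at 37° C, then incubated 5 h at 37° C with compound. Viability measured by CellTiter-Glo luminescence after 15 min shaking at room temperature. Cell-free medium wells served as control.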
# [9] = tested on: SUDHL5 cells; experiment: Induction of caspase-3/7 activity in SUDHL5 cells (Assay 4); assay type: cell-based
# How it was run: (§8)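 Caspase-3/7 activity measured in DLBCL lines after 3 h compound exposure at 37 °C, following overnight plating; Caspase-Glo 3/7 luminescence read after 1 h at 37 °C. Medium-only background subtracted, values normalized to mean of DMSO-treated cells.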
# [10] = tested on: AMO-1 cells; experiment: Antiproliferation assay AMO-1 (Assay 7); assay type: cell-based
# How it was run: as §6
# [11] = tested on: SUDHL10 cells; experiment: Induction of cytotoxicity in SUDHL10 cells (Assay 6); assay type: cell-based; details: 5 h, CellTiter-Glo, read-out: Cytotox SUDHL10 IC50 (median)
# How it was run: as §7
# [12] = tested on: PA-1 cells; experiment: Antiproliferation assay PA-1 (Assay 7); assay type: cell-based; details: Homo sapiens, read-out: Antiproli PA-1 IC50 median
# Procedure: as §1, §2, §3, §4, §5
# [13] = tested on: SUDHL10 cells; experiment: Induction of caspase-3/7 activity in SUDHL10 cells (Assay 4); assay type: cell-based
# How it was run: as §8
# [14] = target: MCL-1 (Homo sapiens (Human), UniProt Q07820, K194A/K197A/R201A); experiment: Protein-protein interaction assay MCL-1/Noxa BH3 peptide (MCL-1 assay, TR-FRET); assay type: binding; details: MCL-1 Assay IC50 (median)
# How it was run: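 Competition TR-FRET with MBP-MCL-1 (aa 173-321) at 1 nM final and biotinylated Noxa BH3 peptide, pH 7 Tris buffer. Compounds pre-incubated 10 min at 22° C., then 1 h at 22° C. and overnight at 4° C. 665/620 nm ratio normalized to DMSO; IC50 from 4-parameter fit.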
# [15] = tested on: SUDHL5 cells; experiment: Antiproliferation assay SUDHL5 (Assay 7); assay type: cell-based
# How it was run: as §6
# [16] = tested on: A2780 cells; experiment: Antiproliferation assay A2780 (Assay 7); assay type: cell-based; details: 72 h, CellTiter-Glo; read-out: Antiproli A2780 IC50 median
# Procedure: as §1, §2, §3, §4, §5
# [17] = tested on: MV-4-11 cells; experiment: Antiproliferation assay MV-4-11 (Assay 7); assay type: cell-based; details: 72 h, CellTiter-Glo; read-out: Antiproli MV-4-11 IC50 median
# Procedure: as §1, §2, §3, §4, §5
# [18] = DMS-114 cells, 72 h, CellTiter-Glo
# [19] = 72 h, CellTiter-Glo; read-out: Antiproli HMC-1-8 IC50 median
# [20] = caspase-3/7 induction, 3 h; read-out: Caspase SUDHL5 EC50 (median)
# [21] = 72 h, CellTiter-Glo; read-out: Antiproli AMO-1 IC50 median
# [22] = caspase-3/7 induction, 3 h; read-out: Caspase SUDHL10 EC50 (median)
# [23] = 72 h, CellTiter-Glo; read-out: Antiproli SUDHL5 IC50 (median)
# Chain of MCL-1 (Q07820 whole entry, looked up, stated change not applied, the tested form may be a part): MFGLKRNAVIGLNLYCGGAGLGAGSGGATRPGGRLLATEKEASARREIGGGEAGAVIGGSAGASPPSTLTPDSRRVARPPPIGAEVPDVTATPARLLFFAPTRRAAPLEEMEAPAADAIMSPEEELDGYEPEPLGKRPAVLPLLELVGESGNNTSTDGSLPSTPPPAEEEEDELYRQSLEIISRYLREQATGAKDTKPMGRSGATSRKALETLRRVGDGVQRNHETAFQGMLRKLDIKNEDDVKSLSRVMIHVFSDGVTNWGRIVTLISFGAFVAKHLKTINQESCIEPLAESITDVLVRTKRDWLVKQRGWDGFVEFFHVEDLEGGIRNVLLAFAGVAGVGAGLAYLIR
molecule,measurement,setting,value
"ethyl (15-rac)-4-chloro-3-ethyl-15-[2-(3-rac-(fluoroazetidin-1-yl)ethyl]-7-{3-[(6-fluoronaphthalen-1-yl)oxy]propyl}-2-methyl-2,10,11,12,13,15-hexahydropyrazolo[4′,3′:9,10][1,6]oxazacycloundecino[8,7,6-hi]indole-8-carboxylate (Mixture of Stereoisomers)","ring closure, isolated yield","[1]; amine bond, PPh3/DTBAD, THF, 69.2 mM",77%
"CCc1c2c(nn1C)C(CCCN1CCOCC1)OCCCCn1c(C(=O)O)c(CCCOc3cccc4cc(F)ccc34)c3ccc(Cl)c-2c31 (single isomer, unassigned; enantiomer 1) [Example 66, (+)-4-chloro-3-ethyl-7-{3-[(6-fluoronaphthalen-1-yl)oxy]propyl}-2-methyl-15-[3-(morpholin-4-yl)propyl]-2,10,11,12,13,15-hexahydropyrazolo[4′,3′:9,10][1,6]oxazacycloundecino[8,7,6-hi]indole-8-carboxylic Acid (Enantiomer 1)]",IC50,"[2]; SK-MEL-2, 72 h, CellTiter-Glo",501 nM
same,IC50,"[3]; A-431, 72 h, CellTiter-Glo",414 nM
same,IC50,[4]; [18],766 nM
same,IC50,[5]; CellTiter-Glo,307 nM
same,IC50,"[6]; SNU-16, 72 h, CellTiter-Glo",1110 nM
same,IC50,[7]; [19],1160 nM
same,IC50,[8],110 nM
same,EC50,[9]; [20],83 nM
same,IC50,[10]; [21],28.5 nM
same,IC50,[11],55 nM
same,IC50,"[12]; PA-1, 72 h, CellTiter-Glo",829 nM
same,EC50,[13]; [22],39 nM
same,IC50,[14],0.54 nM
same,IC50,[15]; [23],93 nM
CCOC(=O)c1[nH]c2c(-c3c(C(O)C4CC4)nn(C)c3CC)c(Cl)ccc2c1CCCOc1cccc2cc(F)ccc12 (racemic),"ring closure, isolated yield","[1]; the molecule shown is the open-chain precursor, crosslinker bond, (Z)-1,4-dichlorobut-2-ene/Cs2CO3/NaI, MeCN, 197.0 mM, 70.0 °C",59%
"(rac)-ethyl 4-chloro-3-ethyl-7-{3-[(6-fluoronaphthalen-1-yl)oxy]propyl}-2-methyl-(15-rac)-[2-(4-methylpiperazin-1-yl)ethyl]-2,10,11,12,13,15-hexahydropyrazolo[4′,3′:9,10][1,6]oxazacycloundecino[8,7,6-hi]indole-8-carboxylate","ring closure, isolated yield","[1]; amine bond, PPh3/DTBAD, THF, 22.7 mM",49%
"CCc1c2c(nn1C)C(CCN1CCN(C)CC1)OCCCCn1c(C(=O)O)c(CCCOc3cccc4cc(F)ccc34)c3ccc(Cl)c-2c31 (single isomer, unassigned; stereoisomer 1) [Example 69, (+)-4-chloro-3-ethyl-7-{3-[(6-fluoronaphthalen-1-yl)oxy]propyl}-2-methyl-15-[2-(4-methylpiperazin-1-yl)ethyl]-2,10,11,12,13,15-hexahydropyrazolo[4′,3′:9,10][1,6]oxazacycloundecino[8,7,6-hi]indole-8-carboxylic Acid—N-ethylethanamine Salt (Stereoisomer 1)]",IC50,"[2]; SK-MEL-2, 72 h",1810 nM
same,IC50,"[3]; A-431, 72 h",1660 nM
same,IC50,"[4]; DMS-114, 72 h",762 nM
same,IC50,[5],2410 nM
same,IC50,"[6]; SNU-16, 72 h",1490 nM
same,IC50,"[7]; read-out: Antiproli HMC-1-8 IC50 median; 72 h, CellTiter-Glo",4460 nM
same,IC50,[8],310 nM
same,EC50,"[9]; read-out: Caspase SUDHL5 EC50 (median); caspase-3/7 induction, 3 h",250 nM
same,IC50,"[10]; read-out: Antiproli AMO-1 IC50 median; 72 h, CellTiter-Glo",212 nM
same,IC50,[11],300 nM
same,IC50,"[12]; PA-1, 72 h",795 nM
same,EC50,"[13]; read-out: Caspase SUDHL10 EC50 (median); caspase-3/7 induction, 3 h",150 nM
same,IC50,"[15]; read-out: Antiproli SUDHL5 IC50 (median); 72 h, CellTiter-Glo",240 nM
CCOC(=O)c1c(CCCOc2cccc3cc(F)ccc23)c2ccc(Cl)c3c2n1CCC(F)(F)COC(CCN1CCOCC1)c1nn(C)c(CC)c1-3 (stereo not drawn),"ring closure, isolated yield","[1]; from CCOC(=O)c1[nH]c2c(-c3c(C(CCN4CCOCC4)OCC(F)(F)CCO)nn(C)c3CC)c(Cl)ccc2c1CCCOc1cccc2cc(F)ccc12, amine bond, PPh3/DTBAD, THF, 22.5 mM",83%
"CCc1c2c(nn1C)C(CCN1CCC(F)(F)C1)OCCCCn1c(C(=O)O)c(CCCOc3cccc4cc(F)ccc34)c3ccc(Cl)c-2c31 (single isomer, unassigned; enantiomer 1) [Example 58, 4-chloro-15-[2-(3,3-difluoropyrrolidin-1-yl)ethyl]-3-ethyl-7-{3-[(6-fluoronaphthalen-1-yl)oxy]propyl}-2-methyl-2,10,11,12,13,15-hexahydropyrazolo[4′,3′:9,10][1,6]oxazacycloundecino[8,7,6-hi]indole-8-carboxylic Acid (Enantiomer 1)]",IC50,"[2]; SK-MEL-2, 72 h, CellTiter-Glo",728 nM
same,IC50,"[3]; A-431, 72 h, CellTiter-Glo",486 nM
same,IC50,[4]; [18],81.1 nM
same,IC50,[5]; CellTiter-Glo,223 nM
same,IC50,"[6]; SNU-16, 72 h, CellTiter-Glo",135 nM
same,IC50,"[7]; 72 h, CellTiter-Glo, read-out: Antiproli HMC-1-8 IC50 median",328 nM
same,IC50,"[8]; Homo sapiens, SU-DHL-5, 5 h",28 nM
same,EC50,"[9]; Homo sapiens, SU-DHL-5, 3 h, caspase-3/7 induction, 3 h; read-out: Caspase SUDHL5 EC50 (median)",26 nM
same,IC50,"[10]; Homo sapiens, AMO1, 72 h, 72 h, CellTiter-Glo; read-out: Antiproli AMO-1 IC50 median",19.4 nM
same,IC50,"[11]; Homo sapiens, SU-DHL10, 5 h",43 nM
same,IC50,"[12]; PA-1, 72 h, CellTiter-Glo",110 nM
same,EC50,"[13]; Homo sapiens, SU-DHL10, 3 h, caspase-3/7 induction, 3 h; read-out: Caspase SUDHL10 EC50 (median)",23 nM
same,IC50,"[15]; Homo sapiens, SU-DHL-5, 72 h, 72 h, CellTiter-Glo; read-out: Antiproli SUDHL5 IC50 (median)",29 nM
Cc1c2c(nn1C)C(CCN1CCOCC1)OCCCCn1c(C(=O)O)c(CCCOc3cccc4ccccc34)c3cccc-2c31 (stereo not drawn) [Example 06],IC50,[16],> 33000 nM
same,IC50,[17],22800 nM
"CCc1c2c(nn1C)C(CCN1CCOCC1)OCC(F)(F)CCn1c(C(=O)O)c(CCCOc3cccc4cc(F)ccc34)c3ccc(Cl)c-2c31 (single isomer, unassigned; (+)) [Example 90, (+)-4-chloro-3-ethyl-12,12-difluoro-7-{3-[(6-fluoronaphthalen-1-yl)oxy]propyl}-2-methyl-15-[2-(morpholin-4-yl)ethyl]-2,10,11,12,13,15-hexahydropyrazolo[4′,3′:9,10][1,6]oxazacycloundecino[8,7,6-hi]indole-8-carboxylic Acid]",IC50,"[2]; SK-MEL-2, 72 h, CellTiter-Glo",252 nM
same,IC50,"[3]; A-431, 72 h, CellTiter-Glo",209 nM
same,IC50,[4]; [18],163 nM
same,IC50,[5]; CellTiter-Glo,141 nM
same,IC50,"[6]; SNU-16, 72 h, CellTiter-Glo",1110 nM
same,IC50,[7]; [19],416 nM
same,IC50,[8],30 nM
same,EC50,[9]; [20],27 nM
same,IC50,[10]; [21],24.2 nM
same,IC50,"[12]; PA-1, 72 h, CellTiter-Glo",422 nM
same,EC50,[13]; [22],13 nM
same,IC50,[15]; [23],30 nM
Cc1c2c(nn1C)C(CCN1CCOCC1)OCCCCn1c(C(=O)O)c(CCCOc3cccc4ccccc34)c3ccc(F)c-2c31 (stereo not drawn) [Example 07],IC50,[16],4080 nM
same,IC50,[7]; [19],1610 nM
same,IC50,[10]; [21],463 nM
same,IC50,[17],183 nM
CCOC(=O)c1[nH]c2c(-c3c(C(O)CCN4CCOCC4)nn(C)c3CC)c(F)ccc2c1CCCOc1cccc2ccccc12 (racemic),"ring closure, isolated yield","[1]; the molecule shown is the open-chain precursor, crosslinker bond, (Z)-1,4-dichlorobut-2-ene/Cs2CO3/NaI, MeCN, 98.0 mM, […]",50%

# — US11440923B2, “Substituted macrocyclic indole derivatives” (Bayer Aktiengesellschaft, priority 2017, dated 2022)
